From ChEMBL document CHEMBL1141386, “Metabolites from the Lichen Ochrolechia parella growing under two different heliotropic conditions” (J Nat Prod, 2007) come the findings set out here.

A word on the IC50: it is the concentration at which inhibition is half-maximal. Read a high IC50 as weaker potency.

The experiment concerns B16. The experiment in a line: Cytotoxicity against murine B16 cells by MTT assay. The experiment is classed as cell-based. As to conditions: Mus musculus.

Consider `Cc1cc(O)cc2c1C(=O)Oc1cc3c(c(O)c1O2)C(=O)OC3` [VARIOLARIC ACID], for which the IC50 was found to be 38.7 µM. That is a double-digit micromolar value.
`COc1cccc2c1C(=O)c1c(O)c3c(c(O)c1C2=O)C[C@@](O)(C(=O)CO)C[C@@H]3O[C@H]1C[C@H](N)[C@H](O)[C@H](C)O1` [DOXORUBICIN]: the half-inhibitory concentration (IC50) is 0.1 µM.
Consider `CCCCCC(=O)Cc1cc(O)cc2c1C(=O)Oc1cc(O)c(C(=O)O)c(CC(=O)CCCCC)c1O2`, for which half-maximal inhibition (IC50) was put at 10.3 µM.
The figure for `CC(C)[C@@H](C)/C=C/[C@@H](C)[C@H]1CC[C@@H]2[C@]1(C)CC[C@H]1[C@]23C=C[C@]2(C[C@@H](O)CC[C@]12C)OO3` [ERGOSTEROL PEROXIDE] is 77.9 µM.
